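Step 1: Grow cells in 96-well plates. Step 2: Expose to compound for 48 hours at 5 concentrations. Step 3: Interpolate endpoints linearly; if unreached, use highest concentration. The concentration for full growth arrest is given as TGI.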
Columns and labels:
Assay in all cases: NCI tumour cell line growth inhibition, 48 h
U251 CNS = tested on: U251 CNS
ACHN renal = tested on: ACHN renal
A498 renal = tested on: A498 renal
PC-3 prostate = tested on: PC-3 prostate
MOLT-4 leukemia = tested on: MOLT-4 leukemia
EKVX NSCLC = tested on: EKVX NSCLC
OVCAR-5 ovarian = tested on: OVCAR-5 ovarian
HCT-116 colon = tested on: HCT-116 colon
SK-MEL-28 melanoma = tested on: SK-MEL-28 melanoma
NCI/ADR-RES ovarian = tested on: NCI/ADR-RES ovarian
OVCAR-4 ovarian = tested on: OVCAR-4 ovarian
SF-295 CNS = tested on: SF-295 CNS
MALME-3M melanoma = tested on: MALME-3M melanoma
KM12 colon = tested on: KM12 colon
SNB-19 CNS = tested on: SNB-19 CNS
HCT-15 colon = tested on: HCT-15 colon
HOP-62 NSCLC = tested on: HOP-62 NSCLC
UACC-62 melanoma = tested on: UACC-62 melanoma
K-562 leukemia = tested on: K-562 leukemia
SK-OV-3 ovarian = tested on: SK-OV-3 ovarian
CCRF-CEM leukemia = tested on: CCRF-CEM leukemia
OVCAR-3 ovarian = tested on: OVCAR-3 ovarian
BT-549 breast = tested on: BT-549 breast
HCC-2998 colon = tested on: HCC-2998 colon
DU-145 prostate = tested on: DU-145 prostate
MDA-MB-231 breast = tested on: MDA-MB-231 breast
MCF7 breast = tested on: MCF7 breast
HT29 colon = tested on: HT29 colon
SN12C renal = tested on: SN12C renal
T-47D breast = tested on: T-47D breast
M14 melanoma = tested on: M14 melanoma
UO-31 renal = tested on: UO-31 renal
SK-MEL-2 melanoma = tested on: SK-MEL-2 melanoma
CAKI-1 renal = tested on: CAKI-1 renal
786-0 renal = tested on: 786-0 renal
SW-620 colon = tested on: SW-620 colon
MDA-MB-435 = tested on: MDA-MB-435
COLO 205 colon = tested on: COLO 205 colon
RXF 393 renal = tested on: RXF 393 renal
NCI-H226 lung = tested on: NCI-H226 lung
OVCAR-8 ovarian = tested on: OVCAR-8 ovarian
SF-268 CNS = tested on: SF-268 CNS
MDA-N = tested on: MDA-N
UACC-257 melanoma = tested on: UACC-257 melanoma
NCI-H460 lung = tested on: NCI-H460 lung
RPMI-8226 leukemia = tested on: RPMI-8226 leukemia
SNB-75 CNS = tested on: SNB-75 CNS
NCI-H23 lung = tested on: NCI-H23 lung
A549 NSCLC = tested on: A549 NSCLC
SF-539 CNS = tested on: SF-539 CNS
SK-MEL-5 melanoma = tested on: SK-MEL-5 melanoma
NCI-H522 lung = tested on: NCI-H522 lung
HL-60(TB) leukemia = tested on: HL-60(TB) leukemia
HOP-92 NSCLC = tested on: HOP-92 NSCLC
TK-10 renal = tested on: TK-10 renal
LOX IMVI melanoma = tested on: LOX IMVI melanoma
IGROV1 ovarian = tested on: IGROV1 ovarian
HS 578T breast = tested on: HS 578T breast

CCOC(CI)O[C@@H]1C=C[C@H](OC(C)=O)C1 (stereo partly specified)
TGI (U251 CNS): > 100 µM | TGI (ACHN renal): > 100 µM | TGI (A498 renal): > 100 µM | TGI (PC-3 prostate): > 100 µM | TGI (MOLT-4 leukemia): > 100 µM | TGI (EKVX NSCLC): > 100 µM | TGI (OVCAR-5 ovarian): > 100 µM | TGI (HCT-116 colon): > 100 µM | TGI (SK-MEL-28 melanoma): > 100 µM | TGI (NCI/ADR-RES ovarian): > 100 µM | TGI (OVCAR-4 ovarian): > 100 µM | TGI (SF-295 CNS): > 100 µM | TGI (MALME-3M melanoma): > 100 µM | TGI (KM12 colon): > 100 µM | TGI (SNB-19 CNS): > 100 µM | TGI (HCT-15 colon): > 100 µM | TGI (HOP-62 NSCLC): > 100 µM | TGI (UACC-62 melanoma): > 100 µM | TGI (K-562 leukemia): > 100 µM | TGI (SK-OV-3 ovarian): > 100 µM | TGI (CCRF-CEM leukemia): > 100 µM | TGI (OVCAR-3 ovarian): > 100 µM | TGI (BT-549 breast): > 100 µM | TGI (HCC-2998 colon): > 100 µM | TGI (DU-145 prostate): > 100 µM | TGI (MDA-MB-231 breast): > 100 µM | TGI (MCF7 breast): > 100 µM | TGI (HT29 colon): > 100 µM | TGI (SN12C renal): > 100 µM | TGI (T-47D breast): > 100 µM | TGI (M14 melanoma): > 100 µM | TGI (UO-31 renal): > 100 µM | TGI (SK-MEL-2 melanoma): > 100 µM | TGI (CAKI-1 renal): > 100 µM | TGI (786-0 renal): > 100 µM | TGI (SW-620 colon): > 100 µM | TGI (MDA-MB-435): > 100 µM | TGI (COLO 205 colon): > 100 µM | TGI (RXF 393 renal): > 100 µM | TGI (NCI-H226 lung): > 100 µM | TGI (OVCAR-8 ovarian): > 100 µM | TGI (SF-268 CNS): > 100 µM | TGI (MDA-N): > 100 µM | TGI (UACC-257 melanoma): > 100 µM | TGI (NCI-H460 lung): > 100 µM | TGI (RPMI-8226 leukemia): > 100 µM | TGI (SNB-75 CNS): > 100 µM | TGI (NCI-H23 lung): > 100 µM | TGI (A549 NSCLC): > 100 µM | TGI (SF-539 CNS): > 100 µM

CC(C)C1SCc2nc3ccccc3n21 (stereo unspecified)
TGI (U251 CNS): > 100 µM | TGI (ACHN renal): > 100 µM | TGI (A498 renal): 83.3 µM | TGI (SK-MEL-5 melanoma): 31 µM | TGI (PC-3 prostate): 71.2 µM | TGI (MOLT-4 leukemia): 81.6 µM | TGI (EKVX NSCLC): > 100 µM | TGI (OVCAR-5 ovarian): > 100 µM | TGI (HCT-116 colon): > 100 µM | TGI (SK-MEL-28 melanoma): > 100 µM | TGI (NCI/ADR-RES ovarian): > 100 µM | TGI (OVCAR-4 ovarian): > 100 µM | TGI (NCI-H522 lung): > 100 µM | TGI (SF-295 CNS): > 100 µM | TGI (HL-60(TB) leukemia): > 100 µM | TGI (MALME-3M melanoma): > 100 µM | TGI (KM12 colon): 45.5 µM | TGI (SNB-19 CNS): > 100 µM | TGI (HCT-15 colon): > 100 µM | TGI (HOP-92 NSCLC): > 100 µM | TGI (HOP-62 NSCLC): > 100 µM | TGI (UACC-62 melanoma): > 100 µM | TGI (K-562 leukemia): > 100 µM | TGI (SK-OV-3 ovarian): > 100 µM | TGI (CCRF-CEM leukemia): > 100 µM | TGI (OVCAR-3 ovarian): > 100 µM | TGI (HCC-2998 colon): > 100 µM | TGI (DU-145 prostate): > 100 µM | TGI (MDA-MB-231 breast): 78.2 µM | TGI (MCF7 breast): 45.8 µM | TGI (HT29 colon): > 100 µM | TGI (SN12C renal): > 100 µM | TGI (T-47D breast): > 100 µM | TGI (M14 melanoma): > 100 µM | TGI (UO-31 renal): > 100 µM | TGI (TK-10 renal): > 100 µM | TGI (SK-MEL-2 melanoma): 79.6 µM | TGI (CAKI-1 renal): > 100 µM | TGI (LOX IMVI melanoma): > 100 µM | TGI (786-0 renal): > 100 µM | TGI (SW-620 colon): > 100 µM | TGI (MDA-MB-435): 89.9 µM | TGI (COLO 205 colon): 26.8 µM | TGI (RXF 393 renal): > 100 µM | TGI (NCI-H226 lung): 0.96 µM | TGI (OVCAR-8 ovarian): > 100 µM | TGI (SF-268 CNS): > 100 µM | TGI (MDA-N): > 100 µM | TGI (IGROV1 ovarian): > 100 µM | TGI (UACC-257 melanoma): > 100 µM | TGI (HS 578T breast): > 100 µM | TGI (NCI-H460 lung): > 100 µM | TGI (RPMI-8226 leukemia): > 100 µM | TGI (NCI-H23 lung): > 100 µM | TGI (A549 NSCLC): > 100 µM | TGI (SF-539 CNS): > 100 µM
